# Assay: Confirmation of solubilization of coenzyme Q10 nanoparticle (visual, FIG. 9)
# Assay type: physicochemical
# Details: dispersed in water
# Description: FIG. 9 illustrates images of (1) coenzyme Q10 powder, (2) an aqueous solution separated into a supernatant layer when coenzyme Q10 is dispersed in water and (3) an aqueous solution of a coenzyme Q10 nanoparticle of Example 7 of the present invention.
# As a result, a semi-transparent yellow aqueous solution was formed.
smiles,measurement,value
COC1=C(OC)C(=O)C(C/C=C(\C)CC/C=C(\C)CC/C=C(\C)CC/C=C(\C)CC/C=C(\C)CC/C=C(\C)CC/C=C(\C)CC/C=C(\C)CC/C=C(\C)CCC=C(C)C)=C(C)C1=O [coenzyme Q10],solubility in water / appearance of aqueous solution,not soluble in water
